In patent US20110212954A1, “ALPHA-LIPOIC ACID DERIVATIVES AND THEIR USE IN DRUG PREPARATION” (priority 2008, published 2011):

Test system: protein pool extracted from murine liver
Test: In vitro enzyme hydrolysis assay, thin-layer chromatography detection
Assay type: in vitro ADME, mouse
Settings: 1 mg murine liver protein extract, 50 μg compound, 1 hour, 25° C.
Experimental: In view of what found from the results of Example 29, an in vitro enzyme hydrolysis assay was carried out with the aim of further clarifying which of the synthesized derivatives behaved as alpha-lipoic acid precursors, i.e. as prodrugs able to release alpha-lipoic acid by hydrolysis.
A protein pool extracted from murine liver, containing enzymes able to promote hydrolysis of the compounds of the invention, was used to reintroduce in vitro the hydrolytic activity previously described in the pharmacokinetic studies.
Methodology • The liver of a wild-type mouse was removed; excess blood was removed by washing in phosphate buffer saline (PBS); • Said liver was transferred into a homogenizer with a sufficient amount of lysis buffer (50 mM Tris HCl pH 7.5-8.0; 150 mM NaCl; 5 mM EGTA pH 7.5-8.0; 50 mM NaF pH 8.0; 10% (v/v) glycerol; 1.5 mM MgCl2, 1% Triton X-100) enriched with protease and phosphatase inhibitors (Protease Inhibitor Cocktail; Sigma-Aldrich). 15-20 impacts were applied by the pestle in order to obtain a homogeneous solution; • The entire mixture was left under agitation at +4° C. for 1 hour; after centrifugation at 14000 rpm, the supernatant containing the extracted proteins was recovered; • The amount of extracted protein was determined using the Bradford assay; • The enzymatic hydrolysis reaction was carried out: 1 mg of protein extract for hydrolysing 50 μg of synthesized compound (dissolved in DMSO); 1, 3 or 24 hours at 25° C. under agitation; • The digestion product(s) was/were detected using thin-layer chromatography: mobile phase (60:40:1 of ethyl acetate; n-hexane; acetic acid); silica plate (Sigma-Aldrich); phosphomolybdic reagent; • The digestion products were analyzed and compared with (R)-α-LA (Sigma-Aldrich), and with the non-hydrolysed compound of the invention.
It was, therefore, possible to detect (R)-alpha-lipoic acid as the hydrolysis product and to differentiate it from the enantiomers of the invention.

| Structure (SMILES) | enzymatic hydrolysis after 1 h (FIG. 2) |
| --- | --- |
| CC(C)(C)C(=O)OCOC(=O)CCCC[C@@H]1CCSS1 [Example 15, (R)-5-[1,2]dithiolan-3-yl-pentanoic acid 2,2-dimethyl-propionyloxymethyl ester] | completely hydrolyzed |
| CCCC(=O)OCOC(=O)CCCC[C@@H]1CCSS1 [Example 16, (R)-5-[1,2]dithiolan-3-yl-pentanoic acid butyryloxymethyl ester] | completely hydrolyzed |
| CC(=O)OC(C)OC(=O)CCCC[C@@H]1CCSS1 (stereo partly drawn) [Example 17, (R)-5-[1,2]dithiolan-3-yl-pentanoic acid 1-acetoxy-ethyl ester] | partial hydrolization |
| CC(OC(=O)CCCC[C@@H]1CCSS1)OC(=O)C(C)(C)C (stereo partly drawn) [Example 18, (R)-5-[1,2]dithiolan-3-yl-pentanoic acid 2,2-dimethyl-propionyloxyethyl ester] | partial hydrolization |

Same assay, conditions: 1 mg murine liver protein extract, 50 μg compound, 3 hours, 25° C.

| Structure (SMILES) | enzymatic hydrolysis after 3 h (FIG. 2) |
| --- | --- |
| CC(=O)OC(C)OC(=O)CCCC[C@@H]1CCSS1 (stereo partly drawn) [Example 17, (R)-5-[1,2]dithiolan-3-yl-pentanoic acid 1-acetoxy-ethyl ester] | completely hydrolyzed |
| CC(OC(=O)CCCC[C@@H]1CCSS1)OC(=O)C(C)(C)C (stereo partly drawn) [Example 18, (R)-5-[1,2]dithiolan-3-yl-pentanoic acid 2,2-dimethyl-propionyloxyethyl ester] | completely hydrolyzed |

Same assay, conditions: 1 mg murine liver protein extract, 50 μg compound, 24 hours, 25° C.

| Structure (SMILES) | enzymatic hydrolysis after 24 h (FIG. 3) | amount of (R)-alpha-lipoic acid released after 24 h (FIG. 3) |
| --- | --- | --- |
| O=C(CCCC[C@@H]1CCSS1)N1CCOCC1 [Example 1, (R)-1-morpholin-4-yl-5-[1,2]dithiolan-3-yl-pentan-1-one] | remained essentially unaltered | – |
| CCCCNC(=O)CCCC[C@@H]1CCSS1 [Example 2, (R)-5-[1,2]dithiolan-3-yl-pentanoic acid butylamide] | not completely hydrolysed | very considerable amount |
| CCCC(C)NC(=O)CCCC[C@@H]1CCSS1 (stereo partly drawn) [Example 5, (R)-5-[1,2]dithiolan-3-yl-pentanoic acid(1-methyl-butyl)-amide] | remained essentially unaltered | – |
| CNC(=O)CCCC[C@@H]1CCSS1 [Example 6, (R)-5-[1,2]dithiolan-3-yl-pentanoic acid methylamide] | partial hydrolization | reduced release |
| CCCNC(=O)CCCC[C@@H]1CCSS1 [Example 7, (R)-5-[1,2]dithiolan-3-yl-pentanoic acid propylamide] | partial hydrolization | reduced release |
| CC(C)NC(=O)CCCC[C@@H]1CCSS1 [Example 8, (R)-5-[1,2]dithiolan-3-yl-pentanoic acid isopropylamide] | partial hydrolization | reduced release |
| O=C(CCCC[C@@H]1CCSS1)NCCc1ccccc1 [Example 11, (R)-5-[1,2]dithiolan-3-yl-pentanoic acid phenethyl-amide] | partial hydrolization | reduced release |
| O=C(CCCC[C@@H]1CCSS1)NCCCc1ccccc1 [Example 12, (R)-5-[1,2]dithiolan-3-yl-pentanoic acid(3-phenyl-propyl)-amide] | partial hydrolization | reduced release |
| O=C(CCCC[C@@H]1CCSS1)NCCCCc1ccccc1 [Example 13, (R)-5-[1,2]dithiolan-3-yl-pentanoic acid(4-phenyl-butyl)-amide] | partial hydrolization | reduced release |
| O=C(CCCC[C@@H]1CCSS1)NC1CCCC1 [Example 14, (R)-5-[1,2]dithiolan-3-yl-pentanoic acid cyclopentylamide] | partial hydrolization | reduced release |
| CCCCCNC(=O)CCCC[C@@H]1CCSS1 [Example 19, (R)-5-[1,2]dithiolan-3-yl-pentanoic acid n-pentylamide] | partial hydrolization | reduced release |
| CCCCCCCNC(=O)CCCC[C@@H]1CCSS1 [Example 20, (R)-5-[1,2]dithiolan-3-yl-pentanoic acid n-heptylamide] | remained essentially unaltered | – |
| CCC(CC)NC(=O)CCCC[C@@H]1CCSS1 [Example 21, (R)-5-[1,2]dithiolan-3-yl-pentanoic acid pentan-3-ylamide] | remained essentially unaltered | – |
| O=C(CCCC[C@@H]1CCSS1)NCc1ccccc1 [Example 22, (R)-5-[1,2]dithiolan-3-yl-pentanoic acid N-benzylamide] | not completely hydrolysed | very considerable amount |
| COc1ccc(CNC(=O)CCCC[C@@H]2CCSS2)cc1O [Example 23, (R)-5-[1,2]dithiolan-3-yl-pentanoic acid N-(3-hydroxy-4methoxybenzyl)amide] | not completely hydrolysed | very considerable amount |
| O=C(CCCC[C@@H]1CCSS1)NCC1CC1 [Example 24, (R)-5-[1,2]dithiolan-3-yl-pentanoic acid N-(cyclopropylmethyl)amide] | not completely hydrolysed | very considerable amount |
| C=CCCNC(=O)CCCC[C@@H]1CCSS1 [Example 25, (R)-5-[1,2]dithiolan-3-yl-pentanoic acid N-(buten-3-yl)amide] | not completely hydrolysed | very considerable amount |
| COc1ccc(CNC(=O)CCCC[C@@H]2CCSS2)cc1OC(C)=O [Example 27, (R)-5-[1,2]dithiolan-3-yl-pentanoic acid N-(3-acetoxy-4methoxybenzyl)amide] | not completely hydrolysed | very considerable amount |
| CC1CCN(C(=O)CCCC[C@@H]2CCSS2)CC1 [Example 28, (R)-5-[1,2]dithiolan-3-yl-pentanoic acid 1-(4-methylpiperidin-1-yl)amide] | remained essentially unaltered | – |

Test system: not listed separately
Test: Pharmacokinetic study in rats after oral administration of a single dose, HPLC-MS of plasma
Assay type: in vivo
Settings: rat, shorter treatment intervals (5-30 minutes)
Experimental: The bioavailability of some compounds synthesized (Examples 1a, 2, 2a, 3, 3a, 10, 15a, 16a and 24) was studied in rats after oral administration of a single dose (48.5 μmol/kg) and compared with the reference (R)- or (RS)-α-LA.
Each treatment was carried out on groups of 6 male rats (Sprague-Dawley SD rat) per compound. At regular times, blood withdrawals were carried out for the measurement by HPLC-MS of the concentration of plasmatic α-LA (FIGS. 5, 7, 9) and of the residual compound administered (FIGS. 6, 8).

| Structure (SMILES) | concentration of alpha-lipoic acid in plasma after 30 minutes from administration (FIG. 9) |
| --- | --- |
| CCCCNC(=O)CCCC[C@@H]1CCSS1 [Example 2, (R)-5-[1,2]dithiolan-3-yl-pentanoic acid butylamide] | significant concentration |

Same assay, conditions: rat, single dose 48.5 μmol/kg

| Structure (SMILES) | hydrolysis profile in vivo compared with the corresponding racemic compound (FIG. 7 vs FIG. 5) | released alpha-lipoic acid and compound itself in plasma, any withdrawal time |
| --- | --- | --- |
| CCCCNC(=O)CCCC[C@@H]1CCSS1 [Example 2, (R)-5-[1,2]dithiolan-3-yl-pentanoic acid butylamide] | more linear hydrolysis profile | – |
| O=C(CCCC[C@@H]1CCSS1)NCCCN1CCOCC1 [Example 3, (R)-5-[1,2]dithiolan-3-yl-pentanoic acid(3-morpholin-4-yl-propyl)-amide] | – | neither released alpha-lipoic acid nor the compound itself was detected |

Test system: HepG2 cells
Test: Variation in NADPH levels (total NADPH/NADP ratio), spectrophotometric kit
Assay type: cell-based, human
Settings: HepG2 cells, 5, 10, 100 and 500 μM, 72 hours
Excerpt: Although it is known that under hyperglycemic conditions α-LA induces AMPK activation in hepatic cells, the molecular mechanisms responsible for this biochemical process are not yet known. As envisaged in the description, the inventors of the present invention have advanced the hypothesis that AMPK activation by α-LA is the result of changes in the amount of NADH and NADHP present in cells, due to the interference of α-LA and/or its analogous derivatives in the oxidation-reduction processes. To verify this hypothesis, use was made of commercial kits (by Valter Occhiena) able to analyze the variations in the cellular amounts of NAD(P)H relative to total NAD(P), in the presence of increasing concentrations of the compounds under analysis (total NAD=NADH+NAD^+; total NADP=NADPH+NADP^+).

| Structure (SMILES) | effect on NADPH levels (FIG. 11) |
| --- | --- |
| CC(C)NC(=O)CCCC[C@@H]1CCSS1 [Example 8, (R)-5-[1,2]dithiolan-3-yl-pentanoic acid isopropylamide] | influenced NADPH levels, in a dose dependent manner |

Test system: not given
Test: not given
Settings: not given

| Structure (SMILES) | melting point |
| --- | --- |
| CC(=O)NCCNC(=O)CCCCC1CCSS1 (racemic) [Example 10a, 5-[1,2]dithiolan-3-yl-pentanoic acid(2-acetylamino-ethyl)-amide] | 144.6 to 145.8 °C |
| CC(=O)NCCNC(=O)CCCC[C@@H]1CCSS1 [Example 10, (R)-5-[1,2]dithiolan-3-yl-pentanoic acid(2-acetylamino-ethyl)-amide] | 144.6 to 145.8 °C |
